± gives the expanded uncertainty stated by the source.
Settings: Liquid, Vibrating tube method

CCCCCCCCCCCCCCCC [hexadecane]
mass density [kg/m3]
Settings | 100 kPa | 1000 kPa | 5000 kPa | 10000 kPa | 20000 kPa | 30000 kPa | 40000 kPa | 50000 kPa | 60000 kPa
298.15 K | 770.5 ± 0.7 | 771.1 ± 0.7 | 773.6 ± 0.7 | 776.9 ± 0.7 | 782.6 ± 0.8 | 788.1 ± 0.8 | – | – | –
323.15 K | 753.1 ± 0.7 | 753.9 ± 0.7 | 756.8 ± 0.7 | 760.4 ± 0.7 | 766.9 ± 0.8 | 772.9 ± 0.8 | 778.5 ± 0.8 | 783.8 ± 0.9 | 788.7 ± 0.9
348.15 K | 735.6 ± 0.7 | 736.5 ± 0.7 | 739.8 ± 0.7 | 743.8 ± 0.8 | 751.1 ± 0.8 | 757.8 ± 0.8 | 763.9 ± 0.9 | 769.7 ± 0.9 | 775.1 ± 0.9
373.15 K | 717.8 ± 5 | 719.4 ± 3 | 723.2 ± 3 | 727.7 ± 3 | 735.9 ± 3 | 743.4 ± 3 | 750.3 ± 3 | 756.5 ± 3.1 | 762.4 ± 3.1
423.15 K | 680.8 ± 5 | 684.1 ± 3 | 689.2 ± 3 | 695.1 ± 3 | 705.5 ± 3 | 714.7 ± 3 | 722.9 ± 3.1 | 730.4 ± 3.1 | 737.2 ± 3.1
463.15 K | 651.6 ± 5 | 654.5 ± 5 | 661 ± 3 | 668.5 ± 3 | 681.2 ± 3 | 692 ± 3 | 701.4 ± 3.1 | 709.8 ± 3.1 | 717.5 ± 3.1

CCCCCCCCCC [decane]
mass density [kg/m3]
Settings | 100 kPa | 1000 kPa | 5000 kPa | 10000 kPa | 20000 kPa | 30000 kPa | 40000 kPa | 50000 kPa | 60000 kPa
278.15 K | 741.6 ± 0.7 | 742.2 ± 0.7 | 745 ± 0.7 | 748.3 ± 0.7 | 754.4 ± 0.8 | 760.1 ± 0.8 | 765.4 ± 0.8 | 770.4 ± 0.9 | 775.3 ± 0.9
298.15 K | 726.7 ± 0.7 | 727.4 ± 0.7 | 730.5 ± 0.7 | 734.2 ± 0.7 | 740.9 ± 0.8 | 747.2 ± 0.8 | 753 ± 0.8 | 758.4 ± 0.9 | 763.7 ± 0.9
323.15 K | 707.4 ± 0.7 | 708.4 ± 0.7 | 711.9 ± 0.7 | 716.2 ± 0.8 | 724 ± 0.8 | 731.1 ± 0.8 | 737.5 ± 0.9 | 743.5 ± 0.9 | 749.2 ± 1
348.15 K | 687.6 ± 0.8 | 688.6 ± 0.7 | 692.8 ± 0.7 | 697.7 ± 0.8 | 706.7 ± 0.8 | 714.6 ± 0.8 | 721.8 ± 0.9 | 728.4 ± 0.9 | 734.6 ± 1
373.15 K | 667.1 ± 5 | 668.8 ± 3 | 673.8 ± 3 | 679.6 ± 3 | 689.8 ± 3 | 698.8 ± 3 | 706.8 ± 3.1 | 714.1 ± 3.1 | 720.8 ± 3.1
423.15 K | 624.8 ± 5 | 627.2 ± 3 | 634.5 ± 3 | 642.4 ± 3 | 655.8 ± 3 | 667.1 ± 3 | 677 ± 3.1 | 685.9 ± 3.1 | 693.8 ± 3.1
463.15 K | – | 590.4 ± 5 | 600.3 ± 3 | 610.8 ± 3 | 627.8 ± 3 | 641.4 ± 3.1 | 653.1 ± 3.1 | 663.3 ± 3.1 | 672.1 ± 3.1

Reference: the NIST ThermoML archive (doi:10.1021/acs.jced.5b00613)
